Assay results reported in patent US12358983B2, “Combination of anti CD19 antibody with a BCL-2 inhibitor and uses thereof” (Incyte Corporation, priority 2016, dated 2025).
Marks after values point to notes of the source that are not given here.

Experiments:
MEC-1 cells = assay: Cytotoxicity (ADCC assay with NK effector cells) of MOR00208 and venetoclax alone and in combination in MEC-1 cells; format: cell-based
From the text: Cell lines tested: MEC-1 cells (DSMZ# ACC497). Culture conditions of cell lines used are according to supplier's information. Cell Medium: lscove's Modified Dulbecco's Medium (IMDM), Invitrogen, Cat No.: 31980; RPMI1640, Invitrogen, Cat No.: 31870; GlutaMAX, Invitrogen, CAT No.: 35050; FCS: Sigma CAT No.: F7524 LOT No.: 111M3396. NKs: RPMI1640, with GlutaMAX, Invitrogen, Cat No.: 31870, 10% FCS; Biocoll: Biochrome AG CAT No.: L6115 LOT No.: 0034D; MACS NK cell isolation kit: Miltenyi Biotec CAT No.: 130-092-657 LOT No.: 5150402327; venetoclax: Selleck Chem. CAT No.: S8048 LOT No.: S804803; FCS: Sigma CAT No.: F7524 LOT No.: 111M3396; and RefmAb33 (anti-RSV) with same Fc region as MOR00208.
The cytotoxic potential of MOR00208 and venetoclax alone and in combination were tested in the MEC-1 cell line (CLL). Target cell killing is measured using the following parameters: venetoclax mono treatment at concentrations of 3 μM, 6.5 μM, and 10 μM; MOR00208 mono treatment at concentrations of 0.01 pM, 0.1 pM, 1 pM, 10 pM, 100 pM and 10 nM, and the combination treatment of the listed venetoclax and MOR00208 concentrations. The following are used as controls: RefnnAb33, NK cells alone, MEC-1 cells alone or DMSO. In the venetoclax mono groups as well as in the MOR00208+venetoclax combination groups, target cells were pretreated with venetoclax or with DMSO control for 24 hours followed by removal of the dead cells prior to the ADCC assay. A dead cell removal kit was used to remove cells killed by the cytotoxic effect of venetoclax. The dead cell removal kit was implemented to mimick the removal of dead cells that also occurs in vivo and to prevent false negative interference of the dead cells with the subsequent ADCC assay. For the ADCC assay, target cells are counted and stained using CFSE at a final concentration of 1 μg/mL. For the control group, i.e. DMSO treated target cells, the effector: target (E:T) cell ratio was adjusted to 2:1, i.e. 1×10E6/nnL effector cells (NK cells) and 5×10E5/mL target cells (MEC-1 cells). […] The ADCC assays were performed as follows: using 96 well plates, 100 μL of MEC-1 target cell suspension was added per well, followed by 100 μL NK effector cell suspension per well. Mixed cell suspensions were centrifuged and resuspended in 100 μL antibody containing medium or the according control solution. The antibodies were diluted in a range of 10 nM-0.01 pM (corresponds to 1.5 μg/mL-1.5 pg/mL) in medium. The ADCC assays were incubated for 2 hours in a CO2-incubator at 37° C. After 10 minutes incubation on ice, 50 μL DAPI solution was added to each well (final concentration 1 μg/mL) and incubated for additional 10 minutes on ice. The ADCC measurements were performed on a BD FACSVerse instrument. Dead target cells were identified as DAPI positive cells.
Combination Index (CI) calculations are completed in order to determine synergy of the combination of the exemplified anti-CD19 antibody and venetoclax as compared to MOR00208 and venetoclax alone. Such calculations are described in Ting-Chao Chou, Theoretical Basis, Experimental Design, and Computerized Simulation of Synergism and Antagonism in Drug Combination Studies, Pharmacol Rev 58:621-681 (2006), which is incorporated by reference in its entirety and Chou TC, Talalay P, Quantitative analysis of dose-effect relationships: the combined effects of multiple drugs or enzyme inhibitors. Adv Enzyme Regul 22: 27-55 (1984), which is incorporated by reference in its entirety. The methods of Chou-Talalay are carried out using the CI-isobol method.
The median-effect equation models the effect of an inhibitor (such as a drug) as Fa/Fu=(D/D50)^m, where D is the dose, Fa and Fu is the fraction of the system affected and unaffected by the dose D (Fa+Fu=1); D50 is the dose producing the median effect (e.g. IC50, ED50, LD50). The constant m determines the shape of the dose-effect curve.

[1] = tested on: TOLEDO human lymphoma cell tumors; assay: Subcutaneous human lymphoma cell xenograft model in SCID mice; conditions: for Median Survival (Days Post-Randomization): humane endpoint tumor volume 2000 mm3; for Median % Increase in Doubling Time (IDT) / Median % Increase in Lifespan (ILS): vs. PEP/PBS Control
Description: Toledo cell line and culture medium were purchased and provided by Oncodesign. […] The cells are adherent to plastic flasks.
A statistical test (analysis of variance, ANOVA) was performed to test for homogeneity between groups. MOR208 was injected intraperitoneally (IP) into the peritoneal cavity of mice. Combined substance was administered by oral gavage (per os, PO) via a gavage tube.
The treatment schedule initiated at D23 was as follows:
Animals from group 1 received one daily PO administration of PEP and one IP injection twice a week of PBS.
Animals from group 4 received one IP injection of MOR208 at 11 mg/kg/inj on D23, D27, D30, D34, D37 and D41 followed by a single IP injection of MOR208 at 11 mg/kg/inj on D48 (twice a week).
The viability and behavior were recorded every day. Body weights and tumor volume were measured twice a week. The length and width of the tumor were measured twice a week with calipers and the volume of the tumor was estimated by the formula:

Compound: CC1(C)CCC(CN2CCN(c3ccc(C(=O)NS(=O)(=O)c4ccc(NCC5CCOCC5)c([N+](=O)[O-])c4)c(Oc4cnc5[nH]ccc5c4)c3)CC2)=C(c2ccc(Cl)cc2)C1 [Venetoclax, 4-(4-{[2-(4-Chlorophenyl)-4,4-dimethyl-1-cyclohexen-1-yl]methyl}-1-piperazinyl)-N-({3-nitro-4-[(tetrahydro-2H-pyran-4-ylmethyl)amino]phenyl}sulfonyl)-2-(1H-pyrrolo[2,3-b]pyridin-5-yloxy)benzamide, reference compound]
- Theoretical Venetoclax Dose (MEC-1 cells; Exp 1, same effect as MOR00208 1.50E+00 μg/mL + venetoclax 3.0 μM): 16.0 µM
- Theoretical Venetoclax Dose (MEC-1 cells; Exp 1, same effect as MOR00208 1.50E+00 μg/mL + venetoclax 6.5 μM): 23.9 µM
- Theoretical Venetoclax Dose (MEC-1 cells; Exp 1, same effect as MOR00208 1.50E+00 μg/mL + venetoclax 10.0 μM): 28.4 µM
- Theoretical Venetoclax Dose (MEC-1 cells; Exp 1, same effect as MOR00208 1.50E−02 μg/mL + venetoclax 3.0 μM): 15.1 µM
- Theoretical Venetoclax Dose (MEC-1 cells; Exp 1, same effect as MOR00208 1.50E−02 μg/mL + venetoclax 6.5 μM): 21.9 µM
- Theoretical Venetoclax Dose (MEC-1 cells; Exp 1, same effect as MOR00208 1.50E−02 μg/mL + venetoclax 10.0 μM): 23.0 µM
- Theoretical Venetoclax Dose (MEC-1 cells; Exp 1, same effect as MOR00208 1.50E−03 μg/mL + venetoclax 3.0 μM): 10.4 µM
- Theoretical Venetoclax Dose (MEC-1 cells; Exp 1, same effect as MOR00208 1.50E−03 μg/mL + venetoclax 6.5 μM): 12.7 µM
- Theoretical Venetoclax Dose (MEC-1 cells; Exp 1, same effect as MOR00208 1.50E−03 μg/mL + venetoclax 10.0 μM): 14.0 µM
- Theoretical Venetoclax Dose (MEC-1 cells; Exp 1, same effect as MOR00208 1.50E−04 μg/mL + venetoclax 3.0 μM): 7.2 µM
- Theoretical Venetoclax Dose (MEC-1 cells; Exp 1, same effect as MOR00208 1.50E−04 μg/mL + venetoclax 6.5 μM): 8.5 µM
- Theoretical Venetoclax Dose (MEC-1 cells; Exp 1, same effect as MOR00208 1.50E−04 μg/mL + venetoclax 10.0 μM): 8.9 µM
- Theoretical Venetoclax Dose (MEC-1 cells; Exp 1, same effect as MOR00208 1.50E−05 μg/mL + venetoclax 3.0 μM): 6.3 µM
- Theoretical Venetoclax Dose (MEC-1 cells; Exp 1, same effect as MOR00208 1.50E−05 μg/mL + venetoclax 6.5 μM): 6.9 µM
- Theoretical Venetoclax Dose (MEC-1 cells; Exp 1, same effect as MOR00208 1.50E−05 μg/mL + venetoclax 10.0 μM): 7.4 µM
- Theoretical Venetoclax Dose (MEC-1 cells; Exp 1, same effect as MOR00208 1.50E−06 μg/mL + venetoclax 10.0 μM): 6.4 µM
- Actual Venetoclax Effect (MEC-1 cells; Exp 1, venetoclax 3.0 μM): 8.9 % dead cells
- Actual Venetoclax Effect (MEC-1 cells; Exp 1, venetoclax 6.5 μM): 17.7 % dead cells
- Actual Venetoclax Effect (MEC-1 cells; Exp 1, venetoclax 10.0 μM): 38.8 % dead cells
- Theoretical Venetoclax Dose (MEC-1 cells; Exp 2, same effect as MOR00208 1.50E+00 μg/mL + venetoclax 3.0 μM): 11.2 µM
- Theoretical Venetoclax Dose (MEC-1 cells; Exp 2, same effect as MOR00208 1.50E+00 μg/mL + venetoclax 6.5 μM): 12.5 µM
- Theoretical Venetoclax Dose (MEC-1 cells; Exp 2, same effect as MOR00208 1.50E+00 μg/mL + venetoclax 10.0 μM): 17.6 µM
- Theoretical Venetoclax Dose (MEC-1 cells; Exp 2, same effect as MOR00208 1.50E−02 μg/mL + venetoclax 3.0 μM): 10.6 µM
- Theoretical Venetoclax Dose (MEC-1 cells; Exp 2, same effect as MOR00208 1.50E−02 μg/mL + venetoclax 6.5 μM): 11.9 µM
- Theoretical Venetoclax Dose (MEC-1 cells; Exp 2, same effect as MOR00208 1.50E−02 μg/mL + venetoclax 10.0 μM): 15.0 µM
- Theoretical Venetoclax Dose (MEC-1 cells; Exp 2, same effect as MOR00208 1.50E−03 μg/mL + venetoclax 3.0 μM): 8.6 µM
- Theoretical Venetoclax Dose (MEC-1 cells; Exp 2, same effect as MOR00208 1.50E−03 μg/mL + venetoclax 6.5 μM): 9.4 µM
- Theoretical Venetoclax Dose (MEC-1 cells; Exp 2, same effect as MOR00208 1.50E−03 μg/mL + venetoclax 10.0 μM): 11.3 µM
- Theoretical Venetoclax Dose (MEC-1 cells; Exp 2, same effect as MOR00208 1.50E−04 μg/mL + venetoclax 3.0 μM): 7.3 µM
- Theoretical Venetoclax Dose (MEC-1 cells; Exp 2, same effect as MOR00208 1.50E−04 μg/mL + venetoclax 6.5 μM): 7.9 µM
- Theoretical Venetoclax Dose (MEC-1 cells; Exp 2, same effect as MOR00208 1.50E−04 μg/mL + venetoclax 10.0 μM): 8.8 µM
- Theoretical Venetoclax Dose (MEC-1 cells; Exp 2, same effect as MOR00208 1.50E−05 μg/mL + venetoclax 3.0 μM): 6.6 µM
- Theoretical Venetoclax Dose (MEC-1 cells; Exp 2, same effect as MOR00208 1.50E−05 μg/mL + venetoclax 6.5 μM): 7.1 µM
- Theoretical Venetoclax Dose (MEC-1 cells; Exp 2, same effect as MOR00208 1.50E−05 μg/mL + venetoclax 10.0 μM): 8.0 µM
- Theoretical Venetoclax Dose (MEC-1 cells; Exp 2, same effect as MOR00208 1.50E−06 μg/mL + venetoclax 6.5 μM): 6.7 µM
- Theoretical Venetoclax Dose (MEC-1 cells; Exp 2, same effect as MOR00208 1.50E−06 μg/mL + venetoclax 10.0 μM): 7.2 µM
- Actual Venetoclax Effect (MEC-1 cells; Exp 2, venetoclax 3.0 μM): 19.9 % dead cells
- Actual Venetoclax Effect (MEC-1 cells; Exp 2, venetoclax 6.5 μM): 32.4 % dead cells
- Actual Venetoclax Effect (MEC-1 cells; Exp 2, venetoclax 10.0 μM): 73.9 % dead cells
- Theoretical Venetoclax Dose (MEC-1 cells; Exp 3, same effect as MOR00208 1.50E+00 μg/mL + venetoclax 3.0 μM): 16.6 µM
- Theoretical Venetoclax Dose (MEC-1 cells; Exp 3, same effect as MOR00208 1.50E+00 μg/mL + venetoclax 6.5 μM): 29.4 µM
- Theoretical Venetoclax Dose (MEC-1 cells; Exp 3, same effect as MOR00208 1.50E+00 μg/mL + venetoclax 10.0 μM): 31.0 µM
- Theoretical Venetoclax Dose (MEC-1 cells; Exp 3, same effect as MOR00208 1.50E−02 μg/mL + venetoclax 3.0 μM): 15.4 µM
- Theoretical Venetoclax Dose (MEC-1 cells; Exp 3, same effect as MOR00208 1.50E−02 μg/mL + venetoclax 6.5 μM): 22.3 µM
- Theoretical Venetoclax Dose (MEC-1 cells; Exp 3, same effect as MOR00208 1.50E−02 μg/mL + venetoclax 10.0 μM): 31.0 µM
- Theoretical Venetoclax Dose (MEC-1 cells; Exp 3, same effect as MOR00208 1.50E−03 μg/mL + venetoclax 3.0 μM): 10.2 µM
- Theoretical Venetoclax Dose (MEC-1 cells; Exp 3, same effect as MOR00208 1.50E−03 μg/mL + venetoclax 6.5 μM): 12.2 µM
- Theoretical Venetoclax Dose (MEC-1 cells; Exp 3, same effect as MOR00208 1.50E−03 μg/mL + venetoclax 10.0 μM): 18.4 µM
- Theoretical Venetoclax Dose (MEC-1 cells; Exp 3, same effect as MOR00208 1.50E−04 μg/mL + venetoclax 3.0 μM): 7.9 µM
- Theoretical Venetoclax Dose (MEC-1 cells; Exp 3, same effect as MOR00208 1.50E−04 μg/mL + venetoclax 6.5 μM): 9.0 µM
- Theoretical Venetoclax Dose (MEC-1 cells; Exp 3, same effect as MOR00208 1.50E−04 μg/mL + venetoclax 10.0 μM): 11.6 µM
- Theoretical Venetoclax Dose (MEC-1 cells; Exp 3, same effect as MOR00208 1.50E−05 μg/mL + venetoclax 3.0 μM): 6.4 µM
- Theoretical Venetoclax Dose (MEC-1 cells; Exp 3, same effect as MOR00208 1.50E−05 μg/mL + venetoclax 6.5 μM): 7.5 µM
- Theoretical Venetoclax Dose (MEC-1 cells; Exp 3, same effect as MOR00208 1.50E−05 μg/mL + venetoclax 10.0 μM): 9.6 µM
- Theoretical Venetoclax Dose (MEC-1 cells; Exp 3, same effect as MOR00208 1.50E−06 μg/mL + venetoclax 6.5 μM): 6.4 µM
- Theoretical Venetoclax Dose (MEC-1 cells; Exp 3, same effect as MOR00208 1.50E−06 μg/mL + venetoclax 10.0 μM): 8.4 µM
- Actual Venetoclax Effect (MEC-1 cells; Exp 3, venetoclax 3.0 μM): 7.7 % dead cells
- Actual Venetoclax Effect (MEC-1 cells; Exp 3, venetoclax 6.5 μM): 16.3 % dead cells
- Actual Venetoclax Effect (MEC-1 cells; Exp 3, venetoclax 10.0 μM): 48.1 % dead cells
- Median Tumor Doubling Time ([1]; ABT-199 20 mg/kg p.o. daily): 9.6^a Days
- Median Survival (Days Post-Randomization) ([1]; ABT-199 20 mg/kg p.o. daily): 30.0^a Days
- Median % Increase in Doubling Time (IDT) ([1]; ABT-199 20 mg/kg p.o. daily): 44%
- Median % Increase in Lifespan (ILS) ([1]; ABT-199 20 mg/kg p.o. daily): 43%
- Median Tumor Doubling Time ([1]; ABT-199 40 mg/kg p.o. daily): 11.1^a Days
- Median Survival (Days Post-Randomization) ([1]; ABT-199 40 mg/kg p.o. daily): 36.2^a Days
- Median % Increase in Doubling Time (IDT) ([1]; ABT-199 40 mg/kg p.o. daily): 64%
- Median % Increase in Lifespan (ILS) ([1]; ABT-199 40 mg/kg p.o. daily): 72%
